Laboratory results as given in a compilation of properties of binary mixtures (doi:10.5541/ijot.303607).

Test: xn = mol fraction of the nth substance listed
Conditions: 101 kPa

CC(O)C(=O)[O-].[NH3+]CCO (stereo not given) + CO
speed of sound [m/s]
Conditions | x2 = 0.0675 | x2 = 0.1469 | x2 = 0.2586 | x2 = 0.3811 | x2 = 0.4275 | x2 = 0.518 | x2 = 0.6083 | x2 = 0.7069 | x2 = 0.7972 | x2 = 0.8985
288.15 K | 1875.8 | – | 1802.2 | 1745.7 | 1721.2 | 1666.4 | 1603.6 | 1522 | – | 1301.9
290.65 K | 1867.4 | 1839.5 | 1795.1 | – | 1715 | 1660 | 1597.9 | 1515.5 | 1422 | 1294.8
293.15 K | – | 1831.9 | 1788.4 | – | – | 1653.7 | 1592 | 1509 | 1415.5 | 1287.8
295.65 K | 1852.2 | 1824.6 | – | 1727.1 | – | – | 1586.1 | – | 1409 | –
298.15 K | 1845.1 | 1817.8 | 1775.2 | – | 1697 | 1641.3 | 1580.2 | – | 1402.4 | –
300.65 K | 1838.4 | 1811.2 | 1768.8 | 1715.2 | 1690.9 | – | 1574.2 | 1489.5 | 1395.8 | 1266.1
303.15 K | 1831.9 | 1804.9 | 1762.6 | 1709.4 | 1685 | – | – | 1483 | 1389.3 | 1258.9
305.65 K | 1825.7 | 1798.8 | 1756.6 | 1703.5 | 1679 | 1623.2 | 1562.1 | 1476.6 | 1382.8 | 1251.8
308.15 K | 1819.6 | 1792.9 | 1750.5 | 1697.6 | 1673 | 1617.2 | 1556 | – | 1376.2 | 1244.6
310.65 K | 1813.6 | 1787 | 1744.5 | 1691.7 | 1667.1 | 1611.2 | 1549.9 | 1463.8 | 1369.7 | 1237.5
313.15 K | 1807.7 | 1781.1 | – | 1685.9 | 1661.1 | 1605.2 | – | 1457.3 | – | –
315.65 K | 1801.9 | 1775.2 | 1732.6 | 1680 | – | 1599.1 | 1537.6 | 1451 | 1356.6 | 1223.2
318.15 K | 1796.2 | – | 1726.7 | 1674.2 | 1649.2 | 1593.1 | 1531.4 | 1444.5 | – | 1216.1
320.65 K | 1790.5 | 1763.7 | 1720.8 | 1668.4 | 1643.4 | 1587.1 | 1525.2 | 1438.2 | 1343.6 | 1209
323.15 K | – | 1758 | 1715 | 1662.7 | – | 1581.1 | 1519 | 1431.9 | 1337.2 | 1201.9

CC(O)C(=O)[O-].[NH3+]CCO (stereo not given) + O
speed of sound [m/s]
Conditions | x1 = 0.0088 | x1 = 0.0135 | x2 = 0.3197 | x2 = 0.5253 | x2 = 0.6892 | x2 = 0.9027 | x2 = 0.9293 | x2 = 0.949 | x2 = 0.9707
288.15 K | 1513.4 | – | – | 1897.5 | – | 1778.8 | 1727.7 | 1676.5 | 1602.1
290.65 K | 1520.5 | 1541.4 | – | 1891.7 | 1887.8 | – | 1728.5 | 1678.8 | 1606.7
293.15 K | 1527.1 | 1547.4 | 1882.8 | 1886 | 1882.8 | 1776.9 | 1729 | 1680.8 | –
295.65 K | 1533.2 | 1553 | 1876.5 | 1880.3 | 1877.8 | – | 1729.3 | 1682.6 | 1614.6
298.15 K | 1539 | 1558.2 | 1870.4 | – | 1872.8 | 1774.5 | 1729.4 | 1684.1 | 1618.1
300.65 K | 1544.3 | – | 1864.4 | 1869.1 | – | – | 1729.3 | – | 1621.3
303.15 K | 1549.2 | 1567.4 | 1858.5 | 1863.5 | 1862.7 | – | 1729 | – | 1624.1
305.65 K | 1553.7 | – | 1852.6 | 1858 | 1857.7 | – | 1728.6 | 1687.2 | 1626.6
308.15 K | 1557.8 | 1575.2 | – | 1852.5 | 1852.6 | 1767.7 | 1727.9 | 1687.7 | 1628.8
310.65 K | 1561.5 | – | 1841.1 | – | 1847.5 | – | 1727 | 1688 | 1630.8
313.15 K | 1565 | – | 1835.4 | – | 1842.3 | 1763.4 | 1726 | 1688.1 | 1632.4
315.65 K | 1568 | 1584.1 | 1829.7 | 1835.9 | – | 1761.1 | 1724.7 | 1687.9 | –
318.15 K | 1570.7 | 1586.5 | 1824 | – | 1831.9 | 1758.6 | – | 1687.5 | –
320.65 K | – | 1588.5 | 1818.3 | 1824.8 | 1826.7 | 1756 | – | – | 1635.6
323.15 K | 1575.1 | 1590.1 | 1812.7 | – | – | 1753.2 | 1719.9 | 1686.1 | –
